# Like-named read-outs stand apart in the source and are kept apart here.
# Tests used:
# Format in all cases: cell-based
# [1] = system: MDA-MB-231 cells; experiment: Drug response, cells cultured in hydrogels; parameters: viability, times higher in cellular dormancy than growth state: dose or concentration left out as unconfirmed; details: for viability at 550 µM / viability at 1000 µM / viability at 100 µM / EC50 / IC50 / viability at 50 µM / viability at 10 µM / viability at 4000 µM / viability at 7000 µM / viability at 10000 µM: Homo sapiens; for viability at 550 µM: 0.55 mM; for viability at 550 µM / viability at 1000 µM / viability at 100 µM / viability at 50 µM / viability at 10 µM / viability at 4000 µM / viability at 7000 µM / viability at 10000 µM: read-out: cell viability (normalized to vehicle control); for viability at 100 µM: 0.10 mM; for viability at 50 µM: 0.05 mM; for viability at 10 µM: 0.01 mM; for viability at 4000 µM: 4 mM; for viability at 7000 µM: 7 mM; for viability at 10000 µM: 10 mM
# Protocol: DOX, PAC, and 5-FU stocks were diluted in medium to desired concentrations: DOX (0.001, 0.01, 0.05, 0.1, 0.55, 1, or 2 mM), PAC (0.05, 0.1, 0.55, or 1 mM), and 5-FU (1.0, 4.0, 7.0, or 10 mM).
# At the highest concentrations tested, the DMSO concentration ranged between 1-2% (v/v) for all drugs used. […] Thus, all vehicle controls used in this study contained medium with 1% (v/v) DMSO. […] 15 days post encapsulation, cell-laden hydrogels were rinsed with PBS and transferred to a new well plate for drug exposure for 48 hr. The hydrogels were rinsed twice with PBS to remove excess medium, followed by labeling with a Live/Dead® cell viability kit (Invitrogen) in PBS for 30 min, according to the manufacturer's instructions. The hydrogels were rinsed with PBS for 10 min to remove excess stain. Labeled hydrogels were placed on coverslips and imaged using structured Illumination on a Zeiss AxioObserver Z1 inverted fluorescent microscope as previously described. 32-34 Fluorescent z-stacks (z-height: 150 μm) were acquired approximately at the center of the hydrogels, between the bottom and top surfaces of each sample, and analyzed using FIJI software (NIH). Due to the red autofluorescence of DOX, only the live cells were imaged for viability studies. To quantify cell viability, the number of live cells was normalized to the number of live cells measured in the vehicle control. A minimum of 6 hydrogels were analyzed for each condition.
# (§1) For statistical comparison between viability values, distribution normality was assessed via quantification of skewness and kurtosis, where values within ±2 indicated a normal distribution. Equal variance among groups was additionally evaluated. A one-way analysis of variance (ANOVA) with a post-hoc Tukey-Kramer test was implemented to determine statistical significance between multiple groups. Unless otherwise Indicated, p<0.05 was considered statistically significant. Origin Lab software was used to fit DOX viability data. A nonlinear, growth/sigmoidal curve fit using a dose response function with a Levenberg Marquardt iteration algorithm was performed and allowed to converge for all conditions with a chi-square tolerance of 1E-9.
# [2] = system: MDA-MB-231 cells; experiment: Drug response, 2D controls on tissue culture plastic; details: for EC50 / IC50: 2D culture
# Protocol: MDA-MB-231 cells were trypsinized, counted, and seeded in a fibronectin coated (10 μg/mL), 96 well plate at a density of 5,000 cells/well in serum-containing medium. To measure the drug response of cells independent of encapsulation, pre-encapsulation conditions were replicated by allowing the cells to adhere overnight followed by culture in serum-free medium for 48 hr. DOX, PAC, and 5-FU were reconstituted in DMSO to a stock concentration of 172.4, 58.5, and 384.6 mM, respectively. Stock solutions were diluted in medium to a range of concentrations: DOX (0.001, 0.01, 0.1, 1, 10, 100, or 1000 μM), PAC (0.001, 0.01, 0.1, 1, 10, or 100 μM), and 5-FU (0.001, 0.01, 0.1, 1, 10, 100, or 1000 μM) and added to the MDA-MB-231 cells for 48 hr (n=6 wells per concentration). 46 At the highest drug concentration tested, the DMSO concentration remained […]; thus, 0.1% (v/v) DMSO was used as a vehicle control in 2D studies. Cells were rinsed in PBS twice to remove excess medium, followed by labeling with a Live/Dead® cell viability kit (Invitrogen). Only live cells were labeled, as dead cells detached from the wells and were washed away. Labeled cells were imaged using the proper filter cubes and analyzed using FIJI software (NIH).
# as §1
# The response of MDA-MB-231 cells cultured on standard tissue culture plastic (2D) to DOX, PAC, and 5-FU was quantified as control. MDA-MB-231 cells were cultured on 96 well plates and serum-starved for 48 hr, following the same protocol used for encapsulation for ease of comparison. The MDA-MB-231 cells were exposed to drug-containing medium at the following concentrations (DOX: 0.001, 0.01, 0.1, 1, 10, 100, or 1000 μM; PAC: 0.001, 0.01, 0.1, 1, 10, or 100 μM; and 5-FU: 0.001, 0.01, 0.1, 1, 10, 100, or 1000 μM) for 48 hr. The live MDA-MB-231 cells were fluorescently labeled, imaged, and quantified (FIG. 1).
# [3] = system: MDA-MB-231 cells; experiment: Doxorubicin accumulation and nuclear localization; details: for nuclear to cytoplasmic (N/C) ratio: 48 hr
# Protocol: Cells were encapsulated in hydrogel formulations that induced growth, balanced dormancy, or cellular dormancy for 15 days as described above. The medium was replaced with DOX-containing medium at a concentration of 0.05 mM. Four hydrogels for each formulation were imaged at varying time points (1, 2, 3, 5, 12, 20, 24, 48 hr). The mean cellular fluorescence intensity was measured and plotted against time to quantify intracellular DOX accumulation. To calculate the nuclear to cytoplasmic ratio, the fluorescence intensity measurements of the cytoplasmic and nuclear regions were acquired for each cell, with at least 70 cells measured per image. Due to its mechanism of action, DOX is known to primarily localize to the nucleus of DOX-sensitive cell lines. Studies quantifying DOX localization in multiple cell lines show alignment between high fluorescence intensity and the nucleus. Additionally, nuclear location was approximated based on areas of high fluorescence intensity with distinct morphological features (size, location).
# [4] = MDA-MB-231, 48 h, balanced dormancy, 48 hr
# [5] = MDA-MB-231, 48 h, cellular dormancy, 48 hr
# [6] = MDA-MB-231, 48 h, growth state, 48 hr
# [7] = Homo sapiens, MDA-MB-231, 48 hr
# [8] = Homo sapiens, MDA-MB-231, 2D, 48 hr, read-out: cell viability
# [9] = MDA-MB-231, 48 h, balanced dormancy hydrogel, 48 hr
# [10] = MDA-MB-231, 48 h, cellular dormancy hydrogel, 48 hr
# [11] = MDA-MB-231, 48 h, growth state hydrogel, 48 hr
# [12] = MDA-MB-231, range over the three hydrogel formulations
structure (smiles),measurement,setting,value
"C[S+](C)[O-] [DMSO, Dimethyl Sulfoxide]",cell viability vs serum-containing medium,"[1]; 1 or 2% (v/v), growth hydrogel formulation, 48 hr",no significant differences
same,cytotoxicity,"[1]; 18%, 26% (v/v)",cytotoxic
"CC(=O)O[C@H]1C(=O)[C@@]2(C)[C@H]([C@H](OC(=O)c3ccccc3)[C@]3(O)C[C@H](OC(=O)[C@H](O)[C@@H](NC(=O)c4ccccc4)c4ccccc4)C(C)=C1C3(C)C)[C@]1(OC(C)=O)CO[C@@H]1C[C@@H]2O [PAC, paclitaxel]",viability at 550 µM,[1]; [4],86 ± 5%
same,viability at 1000 µM,"[1]; MDA-MB-231, 48 h, balanced dormancy, 1.00 mM, 48 hr",72 ± 3%
same,viability at 100 µM,[1]; [5],91 ± 6%
same,viability at 550 µM,[1]; [5],84 ± 5%
same,viability at 1000 µM,"[1]; MDA-MB-231, 48 h, cellular dormancy, 1 mM, 48 hr",75 ± 3%
same,viability at 1000 µM,"[1]; MDA-MB-231, 48 h, dormant cells (either state), 1 mM, 48 hr",> 72%
same,viability at 100 µM,[1]; [6],55 ± 4%
same,viability at 550 µM,[1]; [6],51 ± 4%
same,viability at 1000 µM,"[1]; MDA-MB-231, 48 h, growth state, 1 mM, 48 hr",39 ± 4%
same,EC50,[2]; 48 hr,0.761 µM
same,EC50,"[2]; Homo sapiens, MDA-MB-231, 48 h",0.716 µM
same,IC50,[2]; [7],0.651 µM
same,viability at 0.01 µM,"[2]; Homo sapiens, MDA-MB-231, 2D, 0.01 μM, 48 hr, read-out: cell viability",94 ± 13%
same,viability at 100 µM,[2]; [8],6 ± 2%
"COc1cccc2c1C(=O)c1c(O)c3c(c(O)c1C2=O)C[C@@](O)(C(=O)CO)C[C@@H]3O[C@H]1C[C@H](N)[C@H](O)[C@H](C)O1 [DOX, doxorubicin]","fold increase in IC50, balanced dormancy vs growth state",[1],1.3 fold
same,"fold increase in IC50, cellular dormancy vs growth state",[1],1.8 fold
same,"viability, times higher in cellular dormancy than growth state",[1]; 0.55,4-6 times
same,EC50,[1]; [9],67.6 µM
same,IC50,[1]; [9],58.3 µM
same,viability at 50 µM,[1]; [4],57 ± 2%
same,viability at 550 µM,[1]; [4],16 ± 1%
same,EC50,[1]; [10],83.3 µM
same,IC50,[1]; [10],79.9 µM
same,viability at 10 µM,[1]; [5],91 ± 12%
same,viability at 50 µM,[1]; [5],62 ± 5%
same,viability at 550 µM,[1]; [5],24 ± 3%
same,EC50,[1]; [11],43.6 µM
same,IC50,[1]; [11],43.6 µM
same,viability at 10 µM,[1]; [6],82 ± 1%
same,viability at 50 µM,[1]; [6],44 ± 3%
same,viability at 550 µM,[1]; [6],5 ± 1%
same,EC50,[1]; [12],47.4 to 83.3 µM
same,IC50,[1]; [12],43.6 to 79.9 µM
same,EC50,"[2]; Homo sapiens, MDA-MB-231, 48 h",0.006 µM
same,IC50,[2]; [7],0.007 µM
same,viability at 100 µM,[2]; [8],1%
same,"fold decrease in nuclear localization, dormant vs growth state",[3],1.5 fold
same,intracellular accumulation (mean fluorescence intensity) between the three phenotypic states,"[3]; 0.05 mM, over 48 hr",no statistically significant differences
same,nuclear to cytoplasmic (N/C) ratio,"[3]; balanced dormancy, 0.05 mM",2.3±0.8
same,nuclear to cytoplasmic (N/C) ratio,"[3]; cellular dormancy, 0.05 mM",2.4±1.0
same,nuclear to cytoplasmic (N/C) ratio,"[3]; growth state, 0.05 mM",3.5±2.3
"O=c1[nH]cc(F)c(=O)[nH]1 [5-FU, 5-fluorouracil]",viability at 4000 µM,[1]; [4],92 ± 4%
same,viability at 7000 µM,"[1]; MDA-MB-231, 48 h, both dormant states, 48 hr",> 90%
same,viability at 4000 µM,[1]; [5],100 ± 6%
same,viability at 10000 µM,[1]; [5],99 ± 4%
same,viability at 10000 µM,"[1]; MDA-MB-231, 48 h, either dormant state, 48 hr",> 93%
same,viability at 7000 µM,[1]; [6],80 ± 2%
same,viability at 10000 µM,[1]; [6],75 ± 5%
same,cell viability (normalized to vehicle control),"[1]; dormant cells, all concentrations tested",> 90%
same,EC50,"[2]; Homo sapiens, MDA-MB-231, 48 h",1.81 µM
same,viability at 1000 µM,"[2]; Homo sapiens, MDA-MB-231, 2D, 1 mM, 48 hr, read-out: cell viability",65 ± 3%

# From patent US12077741B2, “Crosslinked hydrogel compositions for regulating states of encapsulated cancer cells” (University Of Delaware, priority 2017, dated 2024)
